Experimental findings from patent US20240417407A1, “FUROINDAZOLE DERIVATIVES AS GPR84 ANTAGONISTS” (Bayer Aktiengesellschaft, priority 2021, published 2024) are described below.

For this assay, the target named is T1, human GPR84 receptor (Homo sapiens, UniProt Q9NQS5).
T1 construct: frozen aliquots prepared by acCELLerate; host or cells: CHO-K1
Description: cAMP HTRF assay for identification of cellular GPR84 antagonists. Type of assay: cell-based. The settings on record: CHO-K1 cells stably expressing human GPR84; Forskolin plus agonist 6-OAU; cAMP HTRF readout; average or median values. The text has this: cAMP HTRF® Assay for Identification of Cellular GPR84 Antagonists
By using a Homogenous Time-Resolved Fluorescence (HTRF®) based assay (#62AM5PEJ, Cisbio, Condolet, France) the inhibition of the Gi-coupled GPR84 receptor can be detected. CHO-K1 cells stably expressing human GPR84 receptor (purchased from DiscoveRx, now Eurofins) were used and treated with Forskolin (F6886, Sigma, Germany) to stimulate membrane adenylyl cyclases and thereby unspecific cAMP formation. Activation of the Gi-coupled GPR84 by a natural or small molecule agonist (e.g. 6-n-octyl aminouracile, inhouse) results in inhibition of cellular cAMP formation which can be released again by antagonists to this receptor. Detection and quantification of cellular cAMP levels in this HTRF assay is achieved by interaction between a fluorescent cAMP tracer (cAMP-d2) and an Eu-cryptate labelled anti-cAMP antibody. Following excitation at 337 nm this pairing allows for the generation of a fluorescence resonance energy transfer (FRET) between the partners and results in FRET induced emissions at 665 nm and 620 nm, the latter representing background signal by Eu-cryptate labelled anti-cAMP antibody. Maximal signal is obtained in the absence of any cellular cAMP (no competition for the binding of the tracer to the antibody). Given the combination of the Gi coupling properties of GPR84 and the competitive nature of the detection system agonist treatment should result in an increase in the HTRF signal due to lowered cAMP levels. Any signal decrease in the presence of Forskolin, agonist and compound is indicative of antagonist mediated abrogation of GPR84 signalling.
For the assay, frozen aliquots of CHO-K1 cells expressing hGPR84 (prepared by acCELLerate, Hamburg, Germany) were thawed and a cell suspension (1.67E+06 cells/mL) in assay media (Ham's F12 Nutrient Mix, Thermo Fisher Scientific, Waltham, USA; 5% fetal calf serum, Biomol, Hamburg, Germany) containing cAMP-d2 (dilution 1:20, supplied with the kit #62AM5PEJ, Cisbio, Condolet, France) was prepared. After recovery of cells for 20 minutes at 37° C., 3 μL/well cell suspension including cAMP-d2 were added to a pre-dispensed assay plate (Greiner Bio-One, Kremsmuenster, Austria) containing 50 nl/well test compound in 100% DMSO or 100% DMSO as control. This was followed by a 30 minutes incubation step at room temperature. […] The reaction was stopped by addition of 3 μL/well lysis buffer containing cAMP Eu-Cryptate antibody (dilution 1:20) (both supplied with the kit #62AM5PEJ, Cisbio, Condolet, France). To enable complete lysis, plates were incubated for 60 minutes at room temperature before measurement in an HTRF reader, e.g. a PHERAstar (BMG Labtech, Ortenberg, Germany).
From the fluorescence emissions at 665 nm (FRET) and at 620 nm (background signal of Eu-cryptate) the ratio (emission at 665 nm divided by emission at 620 nm×10000) was calculated and the data were normalized (reaction without test compound, only 100% DMSO=0% inhibition; all other assay components except agonist=100% inhibition). For dose response testing on the same microtiter plate, compounds were tested at 11 different concentrations in the range of 20 μM to 0.07 nM (20 μM, 5.7 μM, 1.6 μM, 0.47 μM, 0.13 μM, 38 nM, 11 nM, 3.1 nM, 0.89 nM, 0.25 and 0.07 nM; dilution series prepared before the assay at the level of the 100-fold conc. stock solutions by serial 1:3.5 dilutions in 100% DMSO) in duplicate values for each concentration. IC50 values were calculated by 4-parameter fitting using a commercial software package (Genedata Screener, Basel, Switzerland).
Examples were tested in selected biological assays one or more times. […]
In general terms: In TR-FRET formats the signal depends on donor and acceptor labels being close together.

T1 sequence (Q9NQS5 whole entry): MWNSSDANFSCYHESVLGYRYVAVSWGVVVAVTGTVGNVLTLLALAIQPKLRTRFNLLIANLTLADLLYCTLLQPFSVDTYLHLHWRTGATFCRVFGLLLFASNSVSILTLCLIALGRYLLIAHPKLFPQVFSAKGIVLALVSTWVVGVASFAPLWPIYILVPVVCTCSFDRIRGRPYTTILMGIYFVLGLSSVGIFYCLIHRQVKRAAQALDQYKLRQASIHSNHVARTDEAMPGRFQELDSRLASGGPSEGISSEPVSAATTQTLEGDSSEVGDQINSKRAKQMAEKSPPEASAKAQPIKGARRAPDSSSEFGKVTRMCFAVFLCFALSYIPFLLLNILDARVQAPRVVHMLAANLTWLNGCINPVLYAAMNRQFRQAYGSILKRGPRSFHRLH

Turning to `Cc1cc2oc(C(=O)NC[C@@H]3COCCO3)c(C(F)(F)F)c2c2nn(C[C@H]3COCCO3)cc12` [Example 39, N-{[(2R)-1,4-dioxan-2-yl]methyl}-2-{[(2S)-1,4-dioxan-2-yl]methyl}-4-methyl-8-(trifluoromethyl)-2H-furo[2,3-g]indazole-7-carboxamide], the IC50 (commonly the point on the concentration scale where inhibition reaches its midpoint) was determined as 32 nM. As for `Cc1c(C(=O)NC[C@@H]2CCCO2)oc2ccc3cn(Cc4ccccn4)nc3c12` [Example 40, 8-methyl-2-(pyridin-2-ylmethyl)-N-[(2S)-tetrahydrofuran-2-ylmethyl]-2H-furo[2,3-g]indazole-7-carboxamide], the figure is 16 nM. The value for `O=C(NC[C@@H]1CCCO1)c1oc2ccc3cn(Cc4ccccn4)nc3c2c1CO` [Example 41, 8-(hydroxymethyl)-2-(pyridin-2-ylmethyl)-N-[(2S)-tetrahydrofuran-2-ylmethyl]-2H-furo[2,3-g]indazole-7-carboxamide] was 530 nM; that for `O=C(NC[C@@H]1CCCO1)c1cc2c(ccc3cn(Cc4ccccn4)nc32)o1` [Example 42, 2-(pyridin-2-ylmethyl)-N-[(2S)-tetrahydrofuran-2-ylmethyl]-2H-furo[2,3-g]indazole-7-carboxamide] was 880 nM; that for `O=C(NC[C@@H]1CCCO1)c1cc2c(cc(Br)c3cn(Cc4ccccn4)nc32)o1` [Example 43, 4-bromo-2-(pyridin-2-ylmethyl)-N-[(2S)-tetrahydrofuran-2-ylmethyl]-2H-furo[2,3-g]indazole-7-carboxamide] was 4930 nM. In the case of `CCc1cc2oc(C(=O)NC[C@@H]3COCCO3)c(C)c2c2nn(C[C@H]3COCCO3)cc12` [Example 44, N-{[(2R)-1,4-dioxan-2-yl]methyl}-2-{[(2S)-1,4-dioxan-2-yl]methyl}-4-ethyl-8-methyl-2H-furo[2,3-g]indazole-7-carboxamide], the IC50 stood at 54 nM.
